Source: patent publication US7998989B2, “2-Imino-1,3-thiazoline-based compounds and T-type calcium channel inhibitors containing the same” (Korea Institute of Science and Technology, priority 2007, dated 2011)
Like-named read-outs stand apart in the source and are kept apart here.

How the values were obtained:
[1] = target: T1, α1G T-type calcium channel (Homo sapiens, UniProt O43497); test: Assay for % inhibiting activity against T-type calcium channel using FDSS6000 (fluo-3 calcium imaging, KCl activation); type: cell-based
T1 construct: host or cells: HEK293
T1 sequence (O43497 whole entry): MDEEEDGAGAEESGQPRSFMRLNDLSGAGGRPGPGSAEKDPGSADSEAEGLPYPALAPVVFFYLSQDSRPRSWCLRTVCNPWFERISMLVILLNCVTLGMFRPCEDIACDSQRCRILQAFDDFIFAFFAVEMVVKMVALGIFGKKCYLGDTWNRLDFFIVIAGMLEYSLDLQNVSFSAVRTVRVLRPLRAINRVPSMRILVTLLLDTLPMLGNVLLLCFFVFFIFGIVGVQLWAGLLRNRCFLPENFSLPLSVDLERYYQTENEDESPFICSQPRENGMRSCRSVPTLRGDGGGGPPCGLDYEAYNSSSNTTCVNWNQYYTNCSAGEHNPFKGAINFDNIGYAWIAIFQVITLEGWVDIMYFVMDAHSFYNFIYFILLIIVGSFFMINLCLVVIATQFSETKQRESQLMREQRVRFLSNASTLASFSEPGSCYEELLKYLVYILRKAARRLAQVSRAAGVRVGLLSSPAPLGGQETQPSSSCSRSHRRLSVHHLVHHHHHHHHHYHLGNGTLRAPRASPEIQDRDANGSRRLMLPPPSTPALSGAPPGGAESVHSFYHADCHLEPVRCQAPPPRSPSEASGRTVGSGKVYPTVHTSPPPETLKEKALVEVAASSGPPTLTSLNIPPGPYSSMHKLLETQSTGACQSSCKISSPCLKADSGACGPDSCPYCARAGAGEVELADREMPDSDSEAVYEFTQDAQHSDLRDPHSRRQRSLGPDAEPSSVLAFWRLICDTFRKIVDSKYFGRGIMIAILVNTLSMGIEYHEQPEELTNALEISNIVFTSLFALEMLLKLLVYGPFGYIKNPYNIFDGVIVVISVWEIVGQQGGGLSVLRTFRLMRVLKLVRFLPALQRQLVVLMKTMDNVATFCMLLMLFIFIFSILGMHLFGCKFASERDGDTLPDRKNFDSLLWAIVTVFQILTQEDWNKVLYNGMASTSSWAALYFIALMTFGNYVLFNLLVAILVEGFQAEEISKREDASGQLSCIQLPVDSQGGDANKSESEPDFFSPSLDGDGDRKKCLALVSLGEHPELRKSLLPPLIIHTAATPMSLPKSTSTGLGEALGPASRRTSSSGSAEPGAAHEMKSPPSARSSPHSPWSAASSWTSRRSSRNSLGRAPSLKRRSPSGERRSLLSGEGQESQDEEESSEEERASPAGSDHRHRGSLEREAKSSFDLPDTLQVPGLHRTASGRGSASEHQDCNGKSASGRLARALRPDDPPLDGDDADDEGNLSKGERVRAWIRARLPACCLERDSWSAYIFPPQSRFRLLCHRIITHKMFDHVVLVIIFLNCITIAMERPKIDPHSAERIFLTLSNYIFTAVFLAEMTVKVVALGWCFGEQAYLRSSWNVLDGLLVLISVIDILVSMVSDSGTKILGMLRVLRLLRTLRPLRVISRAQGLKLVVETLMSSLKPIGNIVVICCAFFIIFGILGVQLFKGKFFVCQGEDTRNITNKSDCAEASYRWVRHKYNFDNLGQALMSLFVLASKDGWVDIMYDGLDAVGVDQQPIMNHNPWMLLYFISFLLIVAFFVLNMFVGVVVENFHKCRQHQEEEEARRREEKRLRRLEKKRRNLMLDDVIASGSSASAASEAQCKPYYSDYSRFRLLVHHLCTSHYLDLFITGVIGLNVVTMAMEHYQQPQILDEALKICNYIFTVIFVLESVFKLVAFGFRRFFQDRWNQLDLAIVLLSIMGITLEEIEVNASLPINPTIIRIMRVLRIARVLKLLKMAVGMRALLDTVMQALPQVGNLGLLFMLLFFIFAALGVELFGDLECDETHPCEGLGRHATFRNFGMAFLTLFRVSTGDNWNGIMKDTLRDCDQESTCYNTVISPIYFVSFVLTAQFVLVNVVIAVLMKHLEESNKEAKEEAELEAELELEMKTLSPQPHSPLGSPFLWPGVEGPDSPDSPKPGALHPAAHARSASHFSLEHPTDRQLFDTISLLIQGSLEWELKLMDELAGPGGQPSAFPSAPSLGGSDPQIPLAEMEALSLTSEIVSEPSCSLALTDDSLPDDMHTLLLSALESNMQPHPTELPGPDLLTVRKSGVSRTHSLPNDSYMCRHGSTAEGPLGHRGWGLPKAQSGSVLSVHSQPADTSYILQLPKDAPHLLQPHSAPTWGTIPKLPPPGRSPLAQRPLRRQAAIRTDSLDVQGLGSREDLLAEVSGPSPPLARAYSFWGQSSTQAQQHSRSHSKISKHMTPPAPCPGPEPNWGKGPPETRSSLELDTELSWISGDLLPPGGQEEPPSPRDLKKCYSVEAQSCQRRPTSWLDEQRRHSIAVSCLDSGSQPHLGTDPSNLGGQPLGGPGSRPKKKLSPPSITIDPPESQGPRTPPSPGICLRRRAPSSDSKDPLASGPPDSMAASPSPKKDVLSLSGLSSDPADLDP
Summary of the method: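 Percent inhibition derived from […] area against untreated control (100%), after 75 s compound pre-exposure and 75 mM KCl activation. Cells: HEK293 with stable α1G plus Kir2.1, fluo-3/AM-labelled (5 μM), assayed in pH 7.4 HEPES containing 10 mM CaCl2.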

[2] = HEK293, 10 μM, HEK293 cells stably expressing α1G T-type calcium channel and Kir2.1, compounds of the examples, read-out: FDSS (% inhibition)/10uM
[3] = 10 μM, FDSS (% inhibition), comparative compounds where R6 is a phenyl group, read-out: FDSS

Row | inhibition at 10 µM [1, 2] | melting point | inhibition at 10 µM [1, 3] | FDSS (% inhibition)/10uM ([1]; 10 μM, HEK293 cells stably expressing α1G T-type calcium channel and Kir2.1, compounds of the examples) | SMILES | inhibition at 10 µM ([1]; 10 μM, HEK293 cells stably expressing α1G T-type calcium channel and Kir2.1, compounds of the examples, read-out: FDSS (% inhibition)/10uM)
1 | 65.8% | 143 to 144 °C |  |  | CCCCN1C(=NC2CCCCC2)SCC1CC(=O)Nc1ccc(C)cc1Cl.Cl (stereo not shown) [KHG24421, (2-cyclohexylimino-3-(n-butyl)-1,3-thiazolidine-4-yl)-N-(2-chloro-4-methylphenyl)-acetamide hydrochloride] | 
2 | 57.3% | 221 °C |  |  | CCCN1C(=NC23CC4CC(CC(C4)C2)C3)SCC1CC(=O)Nc1ccc(C(F)(F)F)cc1.Cl (stereo not shown) [KHG24809, [2-(1-adamantylimino)-3-n-propyl-1,3-thiazolidine-4-yl]-N-(4-trifluoromethylphenyl)-acetamide hydrochloride] | 
3 | 69% | 227 °C |  |  | CC(C)N1C(=NC23CC4CC(CC(C4)C2)C3)SCC1CC(=O)Nc1ccc(CF)cc1.Cl (stereo not shown) [KHG24829, [2-(1-adamantylimino)-3-isopropyl-1,3-thiazolidine-4-yl]-N-(4-fluoromethylphenyl)-acetamide hydrochloride] | 
4 | 53.4% | 248 to 250 °C |  |  | CC1SC(=NC2CCCCCC2)N(C)C1CC(=O)Nc1cc(Cl)cc(Cl)c1.Cl (stereo not shown) [KHG24644, (2-cycloheptylimino-3,5-dimethyl-1,3-thiazolidine-4-yl)-N-(3,5-dichlorophenyl)-acetamide hydrochloride] | 
5 | 37.4% | 220 to 221 °C |  |  | Cc1ccccc1CNC(=O)CC1CSC(=NC2CCCCC2)N1C.Cl (stereo not shown) [KHG24082, (2-cyclohexylimino-3-methyl-1,3-thiazolidine-4-yl)-N-(2-methylbenzyl)-acetamide hydrochloride] | 
6 | 62.4% | 247 to 271 °C |  |  | CC1SC(=NC2CCCCCC2)N(C)C1CC(=O)Nc1ccc(OC(F)(F)F)cc1.Cl (stereo not shown) [KHG24647, (2-cycloheptylimino-3,5-dimethyl-1,3-thiazolidine-4-yl)-N-(4-trifluoromethoxyphenyl)-acetamide hydrochloride] | 
7 | 58% | 141 °C |  |  | CCCCc1ccc(NC(=O)CC2CSC(=NC34CC5CC(CC(C5)C3)C4)N2CC)cc1.Cl (stereo not shown) [KHG24820, [2-(1-adamantylimino)-3-ethyl-1,3-thiazolidine-4-yl]-N-(4-n-butylphenyl)-acetamide hydrochloride] | 
8 |  | 237 to 238 °C | 15.5% |  | CC(C)c1ccc(N=C2SCC(CC(=O)Nc3ccc(Cl)cc3F)N2C)cc1.Cl (stereo not shown) [KHG23071, [2-(4-isopropylphenylimino)-3-methyl-1,3-thiazolidine-4-yl]-N-(4-chloro-2-fluorophenyl)-acetamide hydrochloride] | 
9 |  | 250 to 253 °C | 26.2% |  | COc1ccc(N=C2SCC(CC(=O)Nc3ccc(Cl)cc3)N2C)cc1.Cl (stereo not shown) [KHG21648, [2-(4-methoxyphenylimino)-3-methyl-1,3-thiazolidine-4-yl]-N-(4-chlorophenyl)-acetamide hydrochloride] | 
10 | 48.6% | 226.7 °C |  |  | CN1C(=NCCc2ccccc2)SCC1CC(=O)Nc1ccc(Cl)cc1.Cl (stereo not shown) [KHG24228, (2-phenethylimino-3-methyl-1,3-thiazolidine-4-yl)-N-(4-chlorophenyl)-acetamide hydrochloride] | 
11 | 46.3% | 178 to 179 °C |  |  | Cl.O=C(CC1CSC(=NC2CCCCC2)N1Cc1ccccc1)Nc1cc(Cl)cc(Cl)c1 (stereo not shown) [KHG24422, (2-cyclohexylimino-3-benzyl-1,3-thiazolidine-4-yl)-N-(3,5-dichlorophenyl)-acetamide hydrochloride] | 
12 | 40.4% | 228 to 230.5 °C |  |  | CN1C(=NC2CCCC2)SCC1CC(=O)Nc1ccc(Cl)cc1F.Cl (stereo not shown) [KHG24105, (2-cyclopentylimino-3-methyl-1,3-thiazolidine-4-yl)-N-(4-chloro-2-fluorophenyl)-acetamide hydrochloride] | 
13 | 52.1% | 146 °C |  |  | Cc1cc(Cl)c(NC(=O)CC2CSC(=NC3CCCCC3)N2C)cc1Cl.Cl (stereo not shown) [KHG24071, (2-cyclohexylimino-3-methyl-1,3-thiazolidine-4-yl)-N-(2,5-dichloro-4-methylphenyl)-acetamide hydrochloride] | 
14 | 46.5% | 171 °C |  |  | CCc1ccc(NC(=O)CC2CSC(=NC34CC5CC(CC(C5)C3)C4)N2C(C)C)cc1.Cl (stereo not shown) [KHG24832, [2-(1-adamantylimino)-3-isopropyl-1,3-thiazolidine-4-yl]-N-(4-ethylphenyl)-acetamide hydrochloride] | 
15 |  | 136 to 137 °C | -2.73% |  | CN1C(=Nc2ccc(C#N)cc2)SCC1CC(=O)Nc1ccc(Cl)cc1F.Cl (stereo not shown) [KHG23067, [2-(4-cyanophenylimino)-3-methyl-1,3-thiazolidine-4-yl]-N-(4-chloro-2-fluorophenyl)-acetamide hydrochloride] | 
16 | 52.5% | 264 to 265 °C |  |  | CC1SC(=NC2CCCCC2)N(C)C1CC(=O)Nc1cc(Cl)cc(Cl)c1 (stereo not shown) [KHG24483, (2-cyclohexylimino-3,5-dimethyl-1,3-thiazolidine-4-yl)-N-(3,5-dichlorophenyl)-acetamide] | 
17 |  | 133 °C |  | 36.57% | CN1C(=NC2CCCCCC2)SCC1C(=O)NCc1cccc(Br)c1 (stereo not shown) [KHG24669, (2-cycloheptylimino-3-methyl-1,3-thiazolidine-4-yl)-N-(3-bromobenzyl)-carboxamide] | 
18 | 53% | 233.5 to 235 °C |  |  | COc1ccc(NC(=O)CC2CSC(=NC3CCCCC3)N2C)cc1Cl.Cl (stereo not shown) [KHG24070, (2-cyclohexylimino-3-methyl-1,3-thiazolidine-4-yl)-N-(3-chloro-4-methoxyphenyl)-acetamide hydrochloride] | 
19 | 51.2% | 215.6 °C |  |  | CCCCN1C(=NC2CCCCC2)SCC1CC(=O)Nc1ccc(C(C)C)cc1.Cl (stereo not shown) [KHG24283, [2-cyclohexylimino-3-(n-butyl)-1,3-thiazolidine-4-yl]-N-(4-isopropylphenyl)-acetamide hydrochloride] | 
20 | 58.5% | 206.8 °C |  |  | CCCN1C(=NC2CCCCC2)SCC1CC(=O)Nc1ccc(Cl)cc1.Cl (stereo not shown) [KHG24287, [2-cyclohexylimino-3-(n-propyl)-1,3-thiazolidine-4-yl]-N-(4-chlorophenyl)-acetamide hydrochloride] | 
21 | 56.6% | 220 to 222 °C |  |  | CN1C(=NC2CCCCCC2)SCC1C(=O)NCc1ccc(Cl)cc1.Cl (stereo not shown) [KHG24337, (2-cycloheptylimino-3-methyl-1,3-thiazolidine-4-yl)-N-(4-chlorobenzyl)-carboxamide hydrochloride] | 
22 | 55.2% | 221.2 °C |  |  | CCCCN1C(=NC2CCCCC2)SCC1CC(=O)Nc1ccc(CC)cc1.Cl (stereo not shown) [KHG24286, [2-cyclohexylimino-3-(n-butyl)-1,3-thiazolidine-4-yl]-N-(4-ethylphenyl)-acetamide hydrochloride] | 

Row | SMILES | inhibition at 10 µM [1, 2] | melting point | inhibition at 10 µM [1, 3] | FDSS (% inhibition)/10uM ([1]; 10 μM, HEK293 cells stably expressing α1G T-type calcium channel and Kir2.1, compounds of the examples) | inhibition at 10 µM ([1]; 10 μM, HEK293 cells stably expressing α1G T-type calcium channel and Kir2.1, compounds of the examples, read-out: FDSS (% inhibition)/10uM)
23 | CCCCN1C(=NC23CC4CC(CC(C4)C2)C3)SCC1CC(=O)Nc1ccc(F)cc1.Cl (stereo not shown) [KHG24780, [2-(1-adamantylimino)-3-(n-butyl)-1,3-thiazolidine-4-yl]-N-(4-fluorophenyl)-acetamide hydrochloride] |  | 163 °C |  |  | 55.3%
